Legend:
[1] = molecular target: T1, PDH phosphatase (Homo sapiens, UniProt Q9P0J1); assay: PDH activation assay; type: biochemical; settings: 100 μM compound
T1 sequence (Q9P0J1 72-537): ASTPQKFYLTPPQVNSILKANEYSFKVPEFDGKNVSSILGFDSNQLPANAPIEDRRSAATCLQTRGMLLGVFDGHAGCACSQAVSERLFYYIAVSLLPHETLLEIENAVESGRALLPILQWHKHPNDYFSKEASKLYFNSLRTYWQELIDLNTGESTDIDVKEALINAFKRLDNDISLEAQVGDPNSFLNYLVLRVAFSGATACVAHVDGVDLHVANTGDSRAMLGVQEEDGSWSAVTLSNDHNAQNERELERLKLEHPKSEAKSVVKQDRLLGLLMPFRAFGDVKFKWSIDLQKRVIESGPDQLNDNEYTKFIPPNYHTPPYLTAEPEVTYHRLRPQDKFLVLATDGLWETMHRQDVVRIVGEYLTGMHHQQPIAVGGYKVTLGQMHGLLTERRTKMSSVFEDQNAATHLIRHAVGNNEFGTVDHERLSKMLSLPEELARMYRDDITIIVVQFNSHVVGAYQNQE
From the text: (§1) Methods for obtaining A-type and P-type mediators are set out in Caro et al, 1997, and in WO98/11116 and WO98/11117. Protocols for determining characteristic IPG biological activities such as PDH activation, PKA inhibition, acetylCoA activation, fructose-1,6-bis-phosphatase activity and lipogenesis are well known in the art or provided in the experimental section below.
(§2) The compounds of the invention can be tested for one or more the characteristic IPG-P and/or IPG-A activities mentioned above to determine whether they will be suitable for use a IPG mimetics or antagonists. Preferred assays measure the effect of the compounds on PDH phosphatase, PKA or lipogenesis. Protocols for these assays are provided in Caro et al^[14].

[2] = molecular target: PKA (Homo sapiens, UniProt P17612); assay: PKA inhibition assay; type: biochemical
From the text: as §1, §2

Row | Molecule | PDH activation [1] | PKA inhibition ([2]; 0.1 μM compound) | PKA inhibition ([2]; 10 μM compound) | PKA inhibition ([2]; 1.0 μM compound)
1 | NC1C(OC2C(O)C(O)C(O)C(O)C2O)OC(COP(=O)(O)O)C(O)C1O [RGL1023, 1′-D-6-O-(2′-amino-2′-deoxy-6′-phosphate-α-D-glucopyranosyl)-myo-inositol] | 14% |  |  | 
2 | NC1C(OC2C(O)C(O)C(O)C(O)C2O)OC(CO)C(O)C1O [RGL1018, 6-O-(2-Amino-2-deoxy-β-D-glucopyranosyl)-D-chiro-inositol] |  | 19% |  | 
3 | N[C@H]1[C@@H](O[C@H]2[C@H](O)[C@H](O)[C@H](O)[C@@H](O)[C@@H]2O)O[C@H](CO)[C@@H](OP(=O)(O)O)[C@@H]1O [RGL1027, 1′-D-6-O-(2′-amino-2′-deoxy-4′-phosphate-α-D-glucopyranosyl)-myo-inositol] | 132% | 18% | 10% | 
4 | 6-O-(2-Ammonio-2-deoxy-β-D-glucopyranosyl)-D-chiro-inositol-1-phosphate [RGL1019] |  | 32% | 31% | 
5 | N[C@H]1[C@@H](O[C@H]2[C@H](O)[C@H](O)[C@H](O)[C@@H](O)[C@@H]2O)O[C@H](CO)[C@@H](O)[C@@H]1OP(=O)(O)O [RGL1029, 1′-D-6-O-(2′-amino-2′-deoxy-3′-phosphate-α-D-glucopyranosyl)-myo-inositol] | 361% | 59% | 33% | 
6 | COC1C(O)C(O)C(OC2OC(CO)C(O)C(O)C2N)C(O)C1O [RGL1015, O-(2-amino-2-deoxy-D-glucopyranosyl)-β(1,6)-3-O-methyl-chiro-inositol] | 38% | 14% | 12% | 15%
7 | O-(2-amino-2deoxy-D-galactopyranosyl)-α(1,6)-D-3-O-methyl-chiro-inositol [RGL1025] | 17% | 48% |  | −13%
8 | CO[C@H]1[C@H](O)[C@@H](O)[C@@H](O[C@H]2O[C@H](CO)[C@@H](O)[C@H](O)[C@H]2N)[C@H](O)[C@@H]1O [RGL1024, O-(2-amino-2-deoxy-D-glucopyranosyl)-α(1,6)-D-3-O-methyl-chiro-inositol] | 65% | 17% | 2% | 34%

— patent publication US7235533B2, “Compounds and their uses” (Rodaris Pharmaceuticals Limited, priority 2000, dated 2007)
